From PubChem BioAssay (NCI) come the findings set out here.

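In this assay, cells in 96-well plates receive the compound at five concentrations for 48 hours. Endpoints are linearly interpolated between the surrounding concentrations. GI50 = concentration required for 50% inhibition of growth. At the TGI there is no net growth.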 Bounds are passed on as bounds.

Among the test systems are HT29 colon; NCI-H226 lung; NCI-H522 lung; SNB-75 CNS; HCC-2998 colon; U251 CNS; M14 melanoma; OVCAR-3 ovarian; IGROV1 ovarian; UO-31 renal.
What all share (experiment): inhibition of tumour cell growth, NCI panel, 48 h

For the molecule `Cc1cc2c(C(=O)NCC#N)cccc2n1-c1nc2c(c(NCc3ccccc3)n1)CCCC2`, the GI50 in the assay on HT29 colon was 0.303 µM; in the assay with NCI-H226 lung, 0.293 µM; with NCI-H522 lung it was 0.242 µM; in the assay on SNB-75 CNS, 0.345 µM; in the assay with HCC-2998 colon, 0.178 µM; in the assay on U251 CNS, 0.227 µM. The GI50 in the assay on M14 melanoma is 0.22 µM; in the assay on OVCAR-3 ovarian it was 0.245 µM; in the assay on IGROV1 ovarian it was 0.315 µM; in the assay with UO-31 renal, 0.305 µM. In addition, the TGI stood at 1.05 µM in the assay with HT29 colon; 0.748 µM in the assay on NCI-H226 lung; 0.842 µM with NCI-H522 lung; 1.74 µM in the assay on SNB-75 CNS; 0.357 µM with HCC-2998 colon; 0.521 µM with U251 CNS. The TGI in the assay on M14 melanoma is 0.532 µM; with OVCAR-3 ovarian, 0.62 µM; in the assay on IGROV1 ovarian, 1.24 µM; with UO-31 renal, 1.11 µM.
`O=C1C(Cl)=C(Cl)C(=O)N1c1ccccc1Cl`: the TGI with HT29 colon was greater than 100 µM; in the assay on NCI-H226 lung it was greater than 100 µM; in the assay with NCI-H522 lung, 22.7 µM; in the assay on SNB-75 CNS, greater than 100 µM; in the assay on HCC-2998 colon, greater than 100 µM; with U251 CNS, greater than 100 µM. In addition, the TGI in the assay with M14 melanoma, in the assay on OVCAR-3 ovarian, in the assay with IGROV1 ovarian and with UO-31 renal was greater than 100 µM in each case.
As to `COc1cccc(N2C(=O)/C(=C/c3ccc(N(CCC#N)CCC#N)cc3)N=C2c2cc([N+](=O)[O-])ccc2Cl)c1`, the TGI in the assay with HT29 colon, in the assay with NCI-H226 lung, with NCI-H522 lung, with SNB-75 CNS, in the assay on HCC-2998 colon and in the assay with U251 CNS was greater than 100 µM each time. Further, the TGI in the assay with M14 melanoma, in the assay on OVCAR-3 ovarian, in the assay on IGROV1 ovarian and in the assay on UO-31 renal was greater than 100 µM in each case.
Take `Cc1ccc(S(=O)(=O)OCC(=O)Nc2ccc(C(=O)O)c(O)c2)cc1`: the GI50 in the assay with HT29 colon was 38.6 µM; with NCI-H226 lung, 30.9 µM; in the assay on NCI-H522 lung, 11.9 µM; in the assay on SNB-75 CNS, 47.3 µM; in the assay with HCC-2998 colon it was 41 µM; in the assay with U251 CNS, 16.3 µM. Besides, the GI50 was 28.2 µM with M14 melanoma, 19.3 µM in the assay on OVCAR-3 ovarian, 18 µM in the assay with IGROV1 ovarian and 45.1 µM with UO-31 renal. For the same molecule, the TGI amounted to 172 µM with HT29 colon; 139 µM in the assay on NCI-H226 lung; 34.6 µM in the assay on NCI-H522 lung; 185 µM in the assay on SNB-75 CNS; 88.1 µM with HCC-2998 colon; 34.5 µM with U251 CNS. The TGI in the assay with M14 melanoma was determined as 85 µM; in the assay with OVCAR-3 ovarian it was 44.5 µM; in the assay with IGROV1 ovarian it was 92.3 µM; in the assay with UO-31 renal it was 173 µM.
Turning to `Nc1c(C(=O)c2ccc(C#CCN3CCOCC3)cc2)cnn1-c1ccc(F)cc1`, the GI50 in the assay on HT29 colon, in the assay with NCI-H226 lung, with NCI-H522 lung, with SNB-75 CNS, with HCC-2998 colon and with U251 CNS was greater than 25 µM throughout. The GI50 in the assay with M14 melanoma, in the assay with OVCAR-3 ovarian, with IGROV1 ovarian and in the assay on UO-31 renal was greater than 25 µM in each case. For the same molecule, the TGI in the assay on HT29 colon, with NCI-H226 lung, in the assay with NCI-H522 lung, in the assay with SNB-75 CNS, in the assay with HCC-2998 colon and in the assay with U251 CNS was greater than 25 µM each time. The TGI in the assay with M14 melanoma, with OVCAR-3 ovarian, in the assay with IGROV1 ovarian and in the assay on UO-31 renal was greater than 25 µM each time.
Consider `O=C(CCC(=O)Nc1ccc(Cl)cc1)CC(=O)c1ccc2ccccc2c1`, for which the TGI with HT29 colon, in the assay with NCI-H226 lung, in the assay on NCI-H522 lung, in the assay on SNB-75 CNS, in the assay with HCC-2998 colon and with U251 CNS was greater than 100 µM throughout. The TGI with M14 melanoma, in the assay on OVCAR-3 ovarian, in the assay on IGROV1 ovarian and in the assay with UO-31 renal was greater than 100 µM in each case.
In the case of `O=C(Nc1ccccc1)n1cc(-c2ccccn2)c(N2CCOCC2)n1`, the TGI was 19.1 µM in the assay on HT29 colon; greater than 100 µM with NCI-H226 lung; 6.58 µM in the assay with NCI-H522 lung; 43.7 µM in the assay on SNB-75 CNS; greater than 100 µM in the assay with HCC-2998 colon; greater than 100 µM in the assay with U251 CNS. The TGI in the assay with M14 melanoma is greater than 100 µM; with OVCAR-3 ovarian, 29.5 µM; in the assay with IGROV1 ovarian, greater than 100 µM; with UO-31 renal it was 92.8 µM.
For the molecule `O=C(Nc1ccn(C2CC(I)C(COC(c3ccccc3)(c3ccccc3)c3ccccc3)O2)c(=O)n1)c1ccccc1` (stereo not given), the TGI in the assay on HT29 colon is 21.5 µM; in the assay on NCI-H226 lung it was 12.8 µM; in the assay with NCI-H522 lung, 21.5 µM; with SNB-75 CNS it was 9.61 µM; in the assay on HCC-2998 colon, 21.5 µM; in the assay with U251 CNS it was 14.5 µM. Besides, the TGI with M14 melanoma was determined as 13.8 µM; with OVCAR-3 ovarian, 13 µM; in the assay on IGROV1 ovarian, 21.5 µM; in the assay on UO-31 renal, 12.8 µM.
For `CCNC(=O)Oc1ccc(/C(=C(\C)c2ccc(Cl)cc2)c2ccc(OCCN(CC)CC)cc2)cc1`, the GI50 in the assay with HT29 colon is 2.52 µM; in the assay with NCI-H226 lung, 17.2 µM; in the assay with NCI-H522 lung, 13.3 µM; in the assay on SNB-75 CNS it was 2.45 µM; with HCC-2998 colon, 4.39 µM; in the assay on U251 CNS it was 4.26 µM. Moreover, the GI50 in the assay with M14 melanoma was 1.97 µM; in the assay on OVCAR-3 ovarian, 4.56 µM; in the assay with IGROV1 ovarian, 3.66 µM; in the assay on UO-31 renal, 1.54 µM. Besides, the TGI amounted to 6.44 µM in the assay on HT29 colon; 39.5 µM with NCI-H226 lung; 28.1 µM in the assay with NCI-H522 lung; 18.4 µM in the assay on SNB-75 CNS; 16.3 µM in the assay on HCC-2998 colon; 13.5 µM in the assay with U251 CNS. The TGI in the assay with M14 melanoma is 3.97 µM; in the assay on OVCAR-3 ovarian, 16.7 µM; with IGROV1 ovarian, 15.3 µM; with UO-31 renal it was 3.62 µM.
Turning to `COc1ccc(/C(=C/c2ccc3ccccc3c2)c2nn[nH]n2)cc1OC`, the GI50 is 2.69 µM in the assay with HT29 colon; greater than 100 µM in the assay with NCI-H226 lung; 1.14 µM with NCI-H522 lung; 2.51 µM in the assay on SNB-75 CNS; 5.2 µM in the assay on HCC-2998 colon; 4.46 µM in the assay on U251 CNS. For the same molecule, the GI50 with M14 melanoma was 1.9 µM; with OVCAR-3 ovarian it was 1.69 µM; in the assay with IGROV1 ovarian it was 4.23 µM; with UO-31 renal, 5.59 µM. Besides, the TGI with HT29 colon is 21.6 µM; in the assay with NCI-H226 lung, greater than 100 µM; in the assay on NCI-H522 lung, 35.8 µM; in the assay with SNB-75 CNS, greater than 100 µM; in the assay on HCC-2998 colon, 82.9 µM; in the assay on U251 CNS, greater than 100 µM. Besides, the TGI is greater than 100 µM in the assay on M14 melanoma, 7.87 µM in the assay with OVCAR-3 ovarian, greater than 100 µM in the assay with IGROV1 ovarian and greater than 100 µM in the assay with UO-31 renal.
